Assay results published in patent publication EP0585371B1, “AROMATIC OLIGOMERIC COMPOUNDS USEFUL AS MIMICS OF BIOACTIVE MACROMOLECULES” (RHONE-POULENC RORER INTERNATIONAL (HOLDINGS) INC., priority 1991, dated 1992).

Key:
[1] = tested on: normal pooled plasma; assay: Anticoagulation activity, Activated Partial Thromboplastin Time (APTT) test; details: concentration required to double clotting time
Outline: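 Normal pooled plasma was mixed with compound in 50 mM Tris-HCl, pH 7.5, and held at 37 °C for 2.5 min. Actin-activated cephaloplastin was added for 5 min, then 35 mM CaCl, and clotting time was read photometrically. Over about .025–1 mg/ml, the concentration doubling clotting time was found by linear interpolation.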

[2] = target: T1, vWF Binding to Gp1b (Homo sapiens, UniProt P04275+P07359); assay: Inhibition of ristocetin-induced binding of 125I-vWF to formalin-fixed platelets; details: at 100 µg/ml; ristocetin 1.0 mg/ml
T1 construct: multimeric vWF (isolated from human plasma cryoprecipitate); Formalin-fixed platelets, prepared according to the method of MacFarlane; from tissue; host or cells: vWF from human plasma cryoprecipitate; GPIb on formalin-fixed platelets
T1 sequence (P04275 764-2813 limits assumed): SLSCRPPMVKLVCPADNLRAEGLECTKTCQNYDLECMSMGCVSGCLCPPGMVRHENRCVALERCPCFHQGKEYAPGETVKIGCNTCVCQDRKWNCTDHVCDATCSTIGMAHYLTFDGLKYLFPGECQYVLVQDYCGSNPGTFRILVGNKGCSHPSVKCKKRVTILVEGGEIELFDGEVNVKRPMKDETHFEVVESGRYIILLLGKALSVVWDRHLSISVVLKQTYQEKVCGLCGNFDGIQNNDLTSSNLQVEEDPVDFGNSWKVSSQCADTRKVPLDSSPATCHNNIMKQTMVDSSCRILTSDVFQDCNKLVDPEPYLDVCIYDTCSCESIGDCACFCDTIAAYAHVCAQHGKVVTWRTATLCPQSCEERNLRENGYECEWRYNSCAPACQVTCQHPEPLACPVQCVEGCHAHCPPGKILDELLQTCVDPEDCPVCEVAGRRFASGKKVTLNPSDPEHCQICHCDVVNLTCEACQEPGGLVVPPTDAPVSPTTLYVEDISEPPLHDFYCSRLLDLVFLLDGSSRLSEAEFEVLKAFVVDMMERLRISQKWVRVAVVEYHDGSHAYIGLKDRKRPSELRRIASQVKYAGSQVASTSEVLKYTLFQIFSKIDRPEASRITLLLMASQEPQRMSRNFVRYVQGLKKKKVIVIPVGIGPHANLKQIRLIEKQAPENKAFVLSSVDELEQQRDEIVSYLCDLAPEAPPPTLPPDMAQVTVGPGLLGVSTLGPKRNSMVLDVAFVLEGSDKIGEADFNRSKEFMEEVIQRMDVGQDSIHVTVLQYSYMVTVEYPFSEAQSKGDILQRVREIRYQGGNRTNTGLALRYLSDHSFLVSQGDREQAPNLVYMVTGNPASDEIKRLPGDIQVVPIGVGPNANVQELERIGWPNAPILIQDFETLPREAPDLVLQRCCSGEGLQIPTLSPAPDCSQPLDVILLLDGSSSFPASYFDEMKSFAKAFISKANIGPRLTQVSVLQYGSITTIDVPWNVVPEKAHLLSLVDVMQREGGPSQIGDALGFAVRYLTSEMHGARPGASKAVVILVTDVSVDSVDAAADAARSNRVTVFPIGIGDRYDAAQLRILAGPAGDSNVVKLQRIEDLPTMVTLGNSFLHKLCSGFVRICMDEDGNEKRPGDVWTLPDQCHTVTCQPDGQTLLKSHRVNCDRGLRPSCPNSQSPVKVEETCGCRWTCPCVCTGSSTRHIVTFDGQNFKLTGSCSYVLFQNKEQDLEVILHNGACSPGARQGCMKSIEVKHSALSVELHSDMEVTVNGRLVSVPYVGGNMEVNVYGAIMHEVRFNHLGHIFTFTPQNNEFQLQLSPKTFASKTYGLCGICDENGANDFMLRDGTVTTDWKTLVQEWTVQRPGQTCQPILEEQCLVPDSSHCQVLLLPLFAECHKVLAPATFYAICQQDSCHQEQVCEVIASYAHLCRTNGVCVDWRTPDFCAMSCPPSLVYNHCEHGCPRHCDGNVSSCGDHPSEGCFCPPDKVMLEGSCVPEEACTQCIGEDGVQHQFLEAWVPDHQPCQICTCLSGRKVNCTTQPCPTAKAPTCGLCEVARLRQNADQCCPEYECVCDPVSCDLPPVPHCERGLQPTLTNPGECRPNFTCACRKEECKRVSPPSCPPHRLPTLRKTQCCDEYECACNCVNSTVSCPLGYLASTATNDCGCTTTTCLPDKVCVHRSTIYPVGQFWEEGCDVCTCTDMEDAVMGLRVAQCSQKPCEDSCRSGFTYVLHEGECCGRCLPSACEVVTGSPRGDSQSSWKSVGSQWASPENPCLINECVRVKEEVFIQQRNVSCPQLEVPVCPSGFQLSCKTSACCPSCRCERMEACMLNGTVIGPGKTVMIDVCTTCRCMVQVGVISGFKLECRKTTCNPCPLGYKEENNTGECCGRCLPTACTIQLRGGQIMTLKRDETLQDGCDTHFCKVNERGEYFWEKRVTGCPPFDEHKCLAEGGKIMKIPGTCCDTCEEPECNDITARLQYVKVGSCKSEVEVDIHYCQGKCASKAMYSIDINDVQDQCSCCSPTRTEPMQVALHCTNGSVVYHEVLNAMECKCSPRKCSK
T1 sequence (P07359 17-652): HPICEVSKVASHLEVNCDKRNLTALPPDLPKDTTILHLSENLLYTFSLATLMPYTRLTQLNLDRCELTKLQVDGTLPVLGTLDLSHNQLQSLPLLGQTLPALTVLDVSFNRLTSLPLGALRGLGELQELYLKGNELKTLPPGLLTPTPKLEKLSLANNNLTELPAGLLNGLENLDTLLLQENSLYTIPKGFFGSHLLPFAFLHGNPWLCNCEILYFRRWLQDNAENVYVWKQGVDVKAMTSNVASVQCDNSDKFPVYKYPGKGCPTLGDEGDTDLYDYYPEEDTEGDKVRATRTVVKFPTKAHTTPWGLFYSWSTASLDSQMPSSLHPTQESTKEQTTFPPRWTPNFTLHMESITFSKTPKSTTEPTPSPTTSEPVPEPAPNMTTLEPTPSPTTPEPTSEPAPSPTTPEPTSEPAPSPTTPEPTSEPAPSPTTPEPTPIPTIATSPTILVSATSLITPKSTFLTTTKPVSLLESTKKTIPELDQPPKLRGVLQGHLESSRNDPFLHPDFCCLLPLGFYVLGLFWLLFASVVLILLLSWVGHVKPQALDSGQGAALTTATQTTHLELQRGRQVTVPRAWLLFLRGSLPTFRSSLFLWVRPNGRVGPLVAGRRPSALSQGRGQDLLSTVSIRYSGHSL
Method: The binding of vWf (vonWillebrand Factor) to glycoprotein Ib is measured in one of two experimental systems, in the presence of either ristocetin or botrocetin as modulators of binding. The ristocetin modulated binding is described herein.
Formalin-fixed platelets, prepared according to the method of MacFarlane, D. et al., Thromb. Diath. Haemorrh. 34, 306-308 (1975), were preincubated at room temperature for 15 minutes with specified dilutions of oligomers according to the present invention. Ristocetin, (Sigma, St. Louis, MO) diluted to a final concentration of 1.0 mg/ml, and ^125I-labelled multimeric vWF (isolated from human plasma cryoprecipitate according to the method of Fulcher, C.A. et al. Proc. Natl. Acad. Sci. USA, 79, 1648-1652 (1982), and labelled according to the method of Fraker, P.J. et al. Biochem. Biophys. Res. Commun., 80, 849-857 (1978)) were then added to the incubation mixture, and the amount of ^125I- vWF bound to the platelets was determined. ^125I-vWF binding to the platelets was referenced against 100% binding which was defined as the amount of ^125I- vWF bound in the absence of added oligomer compound. The method for measuring vWF binding is reported in detail in Ruggeri et al., J. Clin. Invest., 72, 1-12, (1983), herein incorporated by reference.

[3] = tested on: Vascular smooth muscle cells (VSMC); assay: Smooth Muscle Cell DNA Synthesis Assay (3H-thymidine incorporation in response to PDGF); type: cell-based, swine; details: inhibition of incorporation of 3H-thymidine in response to PDGF (9 ng/ml)
Method: Vascular smooth muscle cells (VSMC) are isolated from swine coronaries obtained from swine hearts (Hatfield Meat Packing, Hatfield, PA) by enzyme dissociation as described by Gunther, et al., in J. Cell. Biol. 92, 289 (1982). Hyaluronidase (0.5 mg/ml) is added to facilitate dispersal. Cells are maintained in Earle's modified minimal essential medium (EMEM) with D-valine substituted for L-valine, supplemented with Hepes (10 mM), fetal bovine serum (FBS) (10%), penicillin (100 U/ml) and streptomycin ( 100 µg/ml).
The VSMC (passage 2) are plated at a density of 3 x 10^4 /cm2 (1x10^4 cells/well of 96 well tray) and after 48 hours of normal growth are arrested by replacement of above media with serum-free media for 48 hours consisting of: EMEM: Hams F12 (1:1), insulin, 5 µg/ml; transferrin, 35 µg/ml; selenite, 5 ng/ml; antibiotics and buffer (as above). The oligomer of the present invention to be tested (.01-10 µM) is added 2 hours prior to addition of porcine platelet derived growth factor (Research and Diagonostics, Minneapolis, MN), or FBS,in fresh serum-free media. Twenty-four hours later the oligomers are again added preceding addition of growth factors by 2 hours. […]
The VSMC are pulsed (5 hours) with ^3H-thymidine (Amersham, Arlington Heights, IL) (1 µCi/well of a 96 well plate; 42 Ci/mmole) added 15-18 hours after the last dose of growth factor. DNA synthesis is determined in NaOH extraction of ethanol/ether fixed cells as reported by Nemecek, et al., PNAS 83, 674 (1986). The cells are washed with phosphate bufferred saline (200 µl/well of 96-well tray. The cells are incubated with trichloroacetic acid (TCA) (10%, 200 ul) for 5 minutes to remove cytoplasmic label. After a rapid wash with cold 10% TCA, cells are fixed with ethanol/ether (2:1, 200 µl/well 5 min) and dried. The labeled DNA is extracted with 0.5 N NaOH (200 µl/well 30 min incubation, room temperature). The extracted DNA is neutralized (0.5 N HCI) and counted by liquid scintillation.
Statistical evaluation is as reported by Bilder, et al., Am. […] IC50 values are calculated by linear regression (RPL of RS1) from % inhibition of a minimum of 3 log fold dilutions of oligomers in the presence of PDGF (9 ng/ml) which give 70-80% of a maximal PDGF response. […] Percent inhibition is calculated by comparing the effect of PDGF alone (vehicle treated cultures + PDGF minus vehicle treated cultures without PDGF) to the effect of oligomers (oligomer + PDGF minus oligomer alone) and divided by the effect of PDGF times 100. i.e., = % inhibition = ((ΔVehicle + PDGF) - (Δoligomer + PDGF)/(Δvehicle + PDGF)) x 100.

Ristocetin-Induced Inhibition of vWF Binding to Gp1b [2]: 50% at 100 µg/ml
IC50 [3]: 1.6 µM
SMILES: Cc1cc(O)c(Cc2cc(O)c(Cc3cc(O)c(Cc4cc(O)c(Cc5cc(O)c(Cc6cc(O)c(Cc7cc(O)c(Cc8cc(O)ccc8CCC(=O)O)cc7CCC(=O)O)cc6CCC(=O)O)cc5CCC(=O)O)cc4CCC(=O)O)cc3CCC(=O)O)cc2CCC(=O)O)cc1CCC(=O)O [Ex 4, 5-[4-[4-[4-[4-[4-[4-[[2-(2-carboxyethyl)-5-hydroxy]benzyl]-[2-(2-carboxyethyl)-5-hydroxy]benzyl]-[2-(2-carboxyethyl)-5-hydroxy]benzyl]-[2-(2-carboxyethyl)-5-hydroxy]benzyl]-[2-(2-carboxyethyl)-5-hydroxy]benzyl]-[2-(2-carboxyethyl)-5-hydroxy]benzyl]-[2-(2-carboxyethyl)-5-hydroxy]benzyl]-4-hydroxy-2-methylhydrocinnamic acid]
APTT ICDCT [1]: 430 µg/mL
